In US10370370B2, “Aminobenzisoxazole compounds as agonists of α7-nicotinic acetylcholine receptors” (FORUM PHARMACEUTICALS, INC., priority 2015, dated 2019):
Counter-ions that a name gives are not always drawn.

Biological target: human α7 nAChR (Homo sapiens (Human), UniProt P36544)
Experiment: not given
Format: binding
Settings: above described assay provided by Cerep

Sequence of human α7 nAChR (P36544 23-502 limits assumed): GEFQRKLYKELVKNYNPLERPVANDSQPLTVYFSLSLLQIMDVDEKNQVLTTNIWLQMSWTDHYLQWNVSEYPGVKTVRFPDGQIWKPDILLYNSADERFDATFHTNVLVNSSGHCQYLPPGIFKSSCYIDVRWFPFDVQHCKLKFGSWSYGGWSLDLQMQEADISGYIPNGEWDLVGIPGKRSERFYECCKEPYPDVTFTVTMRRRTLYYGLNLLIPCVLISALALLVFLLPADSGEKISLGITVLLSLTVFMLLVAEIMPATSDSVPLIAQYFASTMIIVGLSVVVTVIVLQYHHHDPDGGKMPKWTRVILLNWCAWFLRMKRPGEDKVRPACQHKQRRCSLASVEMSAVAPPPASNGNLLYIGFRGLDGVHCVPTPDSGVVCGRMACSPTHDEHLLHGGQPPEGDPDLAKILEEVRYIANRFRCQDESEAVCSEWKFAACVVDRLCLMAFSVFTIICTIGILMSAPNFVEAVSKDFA

| SMILES | Ki [nM] |
| --- | --- |
| Cc1ccc(-c2ccc(OC3CN4CCC3CC4)cn2)cc1 (stereo not shown) [AQW051] | 255 |

Biological target: human 5-HT3 serotonin receptors (Homo sapiens (Human), UniProt P46098)
Experiment: [3H]BRL 43694 competition binding (Cerep)
Settings: CHO cell membranes expressing human 5-HT3 receptors

Sequence of human 5-HT3 serotonin receptors (P46098 24-478): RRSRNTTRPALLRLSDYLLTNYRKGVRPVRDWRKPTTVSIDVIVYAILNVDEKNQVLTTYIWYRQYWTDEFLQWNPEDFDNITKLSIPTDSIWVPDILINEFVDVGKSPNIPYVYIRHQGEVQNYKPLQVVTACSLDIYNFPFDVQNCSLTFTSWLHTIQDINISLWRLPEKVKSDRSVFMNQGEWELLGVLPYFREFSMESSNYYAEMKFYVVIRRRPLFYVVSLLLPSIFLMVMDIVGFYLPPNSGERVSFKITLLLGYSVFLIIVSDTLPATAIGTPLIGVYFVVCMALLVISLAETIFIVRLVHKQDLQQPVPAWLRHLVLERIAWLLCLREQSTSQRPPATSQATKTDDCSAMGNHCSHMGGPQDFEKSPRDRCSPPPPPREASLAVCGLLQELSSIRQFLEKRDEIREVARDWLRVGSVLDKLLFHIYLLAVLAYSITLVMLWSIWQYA

| SMILES | Ki [nM] |
| --- | --- |
| Cc1c(Cl)ccc2c(N[C@H]3CN4CCC3CC4)noc12 [Compound (R)-23, (R)-6-chloro-7-methyl-N-(quinuclidin-3-yl)benzo[d]isoxazol-3-amine hydrochloride] | 190 |

Biological target: human α7 nAChRs transiently expressed in Xenopus laevis oocytes (Homo sapiens (Human), UniProt P36544)
Experiment: Oocyte Electrophysiology Screen (two-electrode voltage-clamp, HiQScreen)
Format: cell-based
Settings: test compound at 0.01 mM, response as percentage of that evoked by 0.2 mM ACh; hydrochloride
Experimental: Oocyte Electrophysiology Screen (% ACh @ 10 μM Oocyte)
The Oocyte Electrophysiology Screen studies were performed under contract by HiQScreen Geneva, Switzerland. All experiments were carried out at human α7 nAChRs transiently expressed in Xenopus laevis oocytes using the method of cDNA expression. Currents evoked by acetylcholine or other agonist ligands were recorded using the standard two-electrode voltage-clamp configuration (TEVC). X. laevis oocytes were prepared and injected using standard procedures. Briefly, ovaries were harvested from X. laevis females that were deeply anesthetized and pithed following the animal rights rule from the Geneva canton. A small piece of ovary was isolated for immediate preparation while the remaining part was placed at 4° C. in a sterile Barth solution containing in mM: NaCl 88, KCl 1, NaHCO3 2.4, HEPES 10, MgSO4.7H2O 0.82, Ca(NO3)2.4H2O 0.33, CaCl2.6H2O 0.41, at pH 7.4, and supplemented with 20 μg/mL of kanamycin, 100 unit/mL penicillin and 100 μg/mL streptomycin. On the second day following dissociation, oocytes were injected with 2 ng of cDNA per oocyte containing the gene encoding human α7 nicotinic acetylcholine receptor subunits using an automated injector (Hogg et al., 2008). All recordings were performed at 18° C. and cells were superfused with OR2 medium containing in mM: NaCl 82.5, KCl 2.5, HEPES 5, CaCl2.2H2O 2.5, pH 7.4. Cells were held at −80 mV. Data were filtered at 10 Hz, captured at 100 Hz and analyzed using proprietary data acquisition and analysis software running under Matlab (Mathworks Inc.).
Experimental Protocol and Analysis
After establishing a baseline transmembrane current, acetylcholine (ACh) was applied for 5 seconds at a concentration of 0.2 mM to establish a control ACh-evoked current response. Following a wash period of 90 s in OR2 medium (free of ACh), cells were then exposed for 30 s to the test compound applied at 0.01 mM. The same reference ACh test pulse was immediately given at the end of the compound exposure and again after 90 s of recovery in OR2 Medium (free of ACh or test compound). All data were determined in triplicate. The response evoked by the test compound was expressed as a percentage of that evoked by ACh: Response (% ACh)=100×(Itest/IACh) where Itest is the peak inward current measured during exposure to 0.01 mM of test compound and IACh is the peak inward current measured in the presence of ACh.
Results are provided in Table 2 (reported as % ACh @ 10 μM Oocyte).

Sequence of human α7 nAChRs transiently expressed in Xenopus laevis oocytes (P36544 23-502 limits assumed): as the sequence (P36544 23-502 limits assumed) above

| SMILES | % ACh @ 10 μM Oocyte [% ACh] |
| --- | --- |
| c1ccc2c(NC3CN4CCC3CC4)noc2c1 (single isomer, unassigned; enantiomer1) [Compound 1-P1] | 483 |
| Clc1cccc2c(NC3CN4CCC3CC4)noc12 (single isomer, unassigned; enantiomer1) [Compound 2-P1, 7-chloro-N-(quinuclidin-3-yl)benzo[d]isoxazol-3-amine-enantiomer1 hydrochloride] | 418 |
| Clc1ccc2c(NC3CN4CCC3CC4)noc2c1 (single isomer, unassigned; enantiomer1) [Compound 3-P1, 6-chloro-N-(quinuclidin-3-yl)benzo[d]isoxazol-3-amine-enantiomer1 hydrochloride] | 465 |
| Clc1ccc2onc(NC3CN4CCC3CC4)c2c1 (single isomer, unassigned; enantiomer1) [Compound 4-P1, 5-chloro-N-(quinuclidin-3-yl)benzo[d]isoxazol-3-amine-enantiomer1 hydrochloride] | 326 |
| Cc1ccc2c(NC3CN4CCC3CC4)noc2c1 (single isomer, unassigned; enantiomer1) [Compound 5-P1, 6-methyl-N-(quinuclidin-3-yl)benzo[d]isoxazol-3-amine-enantiomer1 hydrochloride] | 548 |
| c1cc2c(NC3CN4CCC3CC4)noc2cc1C1CC1 (single isomer, unassigned; enantiomer1) [Compound 6-P1, 6-cyclopropyl-N-(quinuclidin-3-yl)benzo[d]isoxazol-3-amine-enantiomer1 hydrochloride] | 157 |
| COc1ccc2c(NC3CN4CCC3CC4)noc2c1 (single isomer, unassigned; enantiomer1) [Compound 7-P1, 6-methoxy-N-(quinuclidin-3-yl)benzo[d]isoxazol-3-amine-enantiomer1 hydrochloride] | 326 |
| FC(F)(F)c1ccc2c(NC3CN4CCC3CC4)noc2c1 (single isomer, unassigned; enantiomer1) [Compound 8-P1, N-(quinuclidin-3-yl)-6-(trifluoromethyl)benzo[d]isoxazol-3-amine-enantiomer1 hydrochloride] | 26 |
| c1ccc2c(NC3CN4CCC3CC4)noc2c1 (single isomer, unassigned; enantiomer2) [Compound 1-P2, N-(quinuclidin-3-yl)benzo[d]isoxazol-3-amine-enantiomer2 hydrochloride] | 206 |
| Clc1cccc2c(NC3CN4CCC3CC4)noc12 (single isomer, unassigned; enantiomer2) [Compound 2-P2, 7-chloro-N-(quinuclidin-3-yl)benzo[d]isoxazol-3-amine-enantiomer2 hydrochloride] | 363 |
| Clc1ccc2c(NC3CN4CCC3CC4)noc2c1 (single isomer, unassigned; enantiomer2) [Compound 3-P2, 6-chloro-N-(quinuclidin-3-yl)benzo[d]isoxazol-3-amine-enantiomer2 hydrochloride] | 379 |
| Clc1ccc2onc(NC3CN4CCC3CC4)c2c1 (single isomer, unassigned; enantiomer2) [Compound 4-P2, 5-chloro-N-(quinuclidin-3-yl)benzo[d]isoxazol-3-amine-enantiomer2 hydrochloride] | 17 |
| Cc1ccc2c(NC3CN4CCC3CC4)noc2c1 (single isomer, unassigned; enantiomer2) [Compound 5-P2, 6-methyl-N-(quinuclidin-3-yl)benzo[d]isoxazol-3-amine-enantiomer2 hydrochloride] | 645 |
| c1cc2c(NC3CN4CCC3CC4)noc2cc1C1CC1 (single isomer, unassigned; enantiomer2) [Compound 6-P2, 6-cyclopropyl-N-(quinuclidin-3-yl)benzo[d]isoxazol-3-amine-enantiomer2 hydrochloride] | 355 |
| COc1ccc2c(NC3CN4CCC3CC4)noc2c1 (single isomer, unassigned; enantiomer2) [Compound 7-P2, 6-methoxy-N-(quinuclidin-3-yl)benzo[d]isoxazol-3-amine-enantiomer2 hydrochloride] | 427 |
| FC(F)(F)c1ccc2c(NC3CN4CCC3CC4)noc2c1 (single isomer, unassigned; enantiomer2) [Compound 8-P2, N-(quinuclidin-3-yl)-6-(trifluoromethyl)benzo[d]isoxazol-3-amine-enantiomer2 hydrochloride] | 221 |

Biological target: recombinantly expressed human α7-nAChR (Homo sapiens (Human), UniProt P36544)
Experiment: not given
Settings: [125I] α-BTX radioligand, read-out: Ki (lit); cited from earlier work

Sequence of recombinantly expressed human α7-nAChR (P36544 23-502 limits assumed): as above

| SMILES | Ki [nM] |
| --- | --- |
| Cc1ccc(-c2ccc(OC3CN4CCC3CC4)cn2)cc1 (stereo not shown) [AQW051] | 28 |
